The text below walks through data of PubChem BioAssay (NCI).

Test systems include 786-0 renal; LOX IMVI melanoma; MDA-MB-231 breast; OVCAR-3 ovarian; SF-268 CNS; SK-MEL-2 melanoma; SK-MEL-28 melanoma; SK-MEL-5 melanoma; SN12C renal; SW-620 colon.
Assay in all cases: NCI anticancer screen, dose series, 48 h

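Five concentrations, 48 hours, 96-well plates. GI50 marks 50% less growth. At the TGI there is no net growth.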 Bounds are passed on as bounds.

For the compound `CC[C@H]1CCC/C=C/[C@@H]2C[C@H](O)C[C@H]2[C@H](O)/C=C/C(=O)O1`, the GI50 in the test with 786-0 renal was 0.0204 µM; with LOX IMVI melanoma, 0.0251 µM; in the test with MDA-MB-231 breast, 0.0213 µM; in the test with OVCAR-3 ovarian, 0.0281 µM; in the test on SF-268 CNS, 0.0403 µM; with SK-MEL-2 melanoma it was 0.0337 µM. The GI50 was 0.0219 µM in the test on SK-MEL-28 melanoma, 0.0166 µM in the test on SK-MEL-5 melanoma, 0.053 µM in the test with SN12C renal and 0.0313 µM with SW-620 colon. For the same compound, the TGI was 0.042 µM in the test with 786-0 renal; 0.0793 µM with LOX IMVI melanoma; 0.0416 µM with MDA-MB-231 breast; 0.104 µM in the test with OVCAR-3 ovarian; over 100 µM in the test on SF-268 CNS; 0.198 µM in the test with SK-MEL-2 melanoma. Also, the TGI in the test on SK-MEL-28 melanoma was 0.134 µM; with SK-MEL-5 melanoma, 0.0328 µM; in the test with SN12C renal, over 100 µM; in the test on SW-620 colon, 0.517 µM.

With `O=c1cc(-c2ccccc2)oc2c1ccc1ccccc12`, the GI50 with 786-0 renal was 27.9 µM; with LOX IMVI melanoma it was 21.9 µM; with MDA-MB-231 breast, 12.5 µM; with OVCAR-3 ovarian, 30.9 µM; with SF-268 CNS, 37.3 µM; in the test with SK-MEL-2 melanoma, 74.7 µM. Moreover, the GI50 was 29.3 µM in the test on SK-MEL-28 melanoma, 20.2 µM in the test on SK-MEL-5 melanoma, 19.6 µM in the test with SN12C renal and 49.2 µM in the test with SW-620 colon. The TGI with 786-0 renal is over 100 µM; in the test on LOX IMVI melanoma it was over 100 µM; in the test on MDA-MB-231 breast it was 67.9 µM; with OVCAR-3 ovarian, over 100 µM; in the test with SF-268 CNS, over 100 µM; in the test on SK-MEL-2 melanoma, over 100 µM. Besides, the TGI is over 100 µM in the test on SK-MEL-28 melanoma, 65.3 µM in the test on SK-MEL-5 melanoma, over 100 µM in the test with SN12C renal and over 100 µM in the test with SW-620 colon.

Take `O=C(c1ccccc1)C1OC1C(=O)c1ccccc1` (stereo not given): the GI50 in the test with 786-0 renal is 4.35 µM; in the test with LOX IMVI melanoma, 2.75 µM; in the test on MDA-MB-231 breast, 3.31 µM; in the test on OVCAR-3 ovarian it was 1.77 µM; in the test on SF-268 CNS it was 2.93 µM; in the test on SK-MEL-2 melanoma, 2.66 µM. For the same compound, the GI50 with SK-MEL-28 melanoma is 4.28 µM; in the test on SK-MEL-5 melanoma, 3.46 µM; in the test on SN12C renal, 3.22 µM; in the test on SW-620 colon, 3.11 µM. Also, the TGI in the test on 786-0 renal is 84.9 µM; in the test with LOX IMVI melanoma, 11.7 µM; in the test on MDA-MB-231 breast, over 100 µM; in the test with OVCAR-3 ovarian it was 6.7 µM; in the test on SF-268 CNS, 19.1 µM; with SK-MEL-2 melanoma it was 9.53 µM. Moreover, the TGI in the test with SK-MEL-28 melanoma came to 44.5 µM; in the test with SK-MEL-5 melanoma it was 14.3 µM; in the test on SN12C renal, 63.4 µM; in the test on SW-620 colon, 16.1 µM.

Regarding `Fc1ccc(-c2ncn(CCCN3CCOCC3)c2-c2ccncc2)cc1`, the GI50 in the test with 786-0 renal, with LOX IMVI melanoma, in the test on MDA-MB-231 breast, in the test with OVCAR-3 ovarian, with SF-268 CNS and in the test on SK-MEL-2 melanoma was over 25 µM each time. The GI50 in the test with SK-MEL-28 melanoma, in the test with SK-MEL-5 melanoma, in the test on SN12C renal and with SW-620 colon was over 25 µM throughout. The TGI in the test with 786-0 renal, in the test with LOX IMVI melanoma, in the test on MDA-MB-231 breast, in the test with OVCAR-3 ovarian, in the test with SF-268 CNS and with SK-MEL-2 melanoma was over 25 µM throughout. The TGI in the test on SK-MEL-28 melanoma, with SK-MEL-5 melanoma, in the test with SN12C renal and with SW-620 colon was over 25 µM in each case.

Regarding `FC(F)(F)c1nc(SCc2ccc(Cl)cc2)n[nH]1`, the TGI with 786-0 renal, in the test on LOX IMVI melanoma, in the test with MDA-MB-231 breast, in the test with OVCAR-3 ovarian, with SF-268 CNS and in the test with SK-MEL-2 melanoma was over 100 µM in each case. Besides, the TGI in the test with SK-MEL-28 melanoma, in the test on SK-MEL-5 melanoma, in the test with SN12C renal and in the test on SW-620 colon was over 100 µM in each case.

Turning to `S=C1SCN(Cc2ccccc2)CN1Cc1ccccc1`, the GI50 is 7.63 µM in the test on 786-0 renal; 3 µM in the test on LOX IMVI melanoma; 3.04 µM in the test with MDA-MB-231 breast; 2.49 µM with OVCAR-3 ovarian; 9.55 µM in the test with SF-268 CNS; 7.53 µM in the test with SK-MEL-2 melanoma. For the same compound, the GI50 was 5.27 µM in the test with SK-MEL-28 melanoma, 13.6 µM in the test with SK-MEL-5 melanoma, 5.01 µM in the test with SN12C renal and 3.02 µM in the test with SW-620 colon. Moreover, the TGI in the test on 786-0 renal was 23.1 µM; in the test on LOX IMVI melanoma, 15 µM; in the test with MDA-MB-231 breast it was 10.1 µM; in the test on OVCAR-3 ovarian, 9.09 µM; in the test with SF-268 CNS, over 37.6 µM; in the test with SK-MEL-2 melanoma, 25.3 µM. For the same compound, the TGI in the test on SK-MEL-28 melanoma stood at 17.9 µM; with SK-MEL-5 melanoma it was 28.1 µM; in the test with SN12C renal, 18.5 µM; in the test with SW-620 colon it was 11.8 µM.

Regarding `CCc1[nH]nc(C(N)=O)c1N=NN(C)C`, the TGI in the test on 786-0 renal, with LOX IMVI melanoma, in the test with MDA-MB-231 breast, in the test with OVCAR-3 ovarian, in the test with SF-268 CNS and in the test on SK-MEL-2 melanoma was over 100 µM in each case. Besides, the TGI with SK-MEL-28 melanoma, in the test with SK-MEL-5 melanoma, in the test with SN12C renal and in the test with SW-620 colon was over 100 µM in each case.

As for `CCOC(=O)Nc1ccc2c(c1)C(=O)N(CC)c1ccccc1O2`, the GI50 in the test with 786-0 renal is 0.434 µM; in the test with LOX IMVI melanoma, 0.198 µM; with MDA-MB-231 breast it was 0.4 µM; in the test on OVCAR-3 ovarian, 0.0788 µM; in the test on SF-268 CNS it was 0.26 µM; with SK-MEL-2 melanoma, 0.102 µM. Further, the GI50 in the test with SK-MEL-28 melanoma was 12.5 µM; with SK-MEL-5 melanoma it was 0.106 µM; in the test on SN12C renal it was 0.449 µM; with SW-620 colon, 0.0632 µM. Further, the TGI in the test on 786-0 renal was over 100 µM; in the test with LOX IMVI melanoma, over 100 µM; in the test on MDA-MB-231 breast, over 100 µM; with OVCAR-3 ovarian, 0.612 µM; with SF-268 CNS it was over 100 µM; in the test on SK-MEL-2 melanoma, over 100 µM. The TGI was over 100 µM with SK-MEL-28 melanoma, 2.33 µM with SK-MEL-5 melanoma, over 100 µM in the test with SN12C renal and over 100 µM in the test with SW-620 colon.
